Settings: Liquid, Vibrating tube method

COC [dimethyl ether]
mass density [kg/m3]
Settings	293.84 K	303.45 K	313.18 K	323 K	332.83 K	343.01 K	353 K	362.91 K	372.94 K
1000 kPa	669.27	653.54	–	–	–	–	–	–	–
3000 kPa	673.21	657.94	641.72	624.46	605.7	584.39	560.89	–	–
5000 kPa	676.85	662.06	646.5	630.01	612.33	592.63	571.39	547.69	519.39
10000 kPa	685.08	671.42	657.11	642.19	626.46	609.39	591.7	572.99	552.4
15000 kPa	692.61	679.73	666.38	652.54	638.17	622.87	607.19	591.04	573.78
20000 kPa	699.44	687.19	674.68	661.65	648.33	634.17	619.91	605.41	590.14
25000 kPa	705.75	694.14	682.06	669.81	657.3	644.06	630.86	617.51	603.55
30000 kPa	711.53	700.39	688.96	677.2	665.34	652.87	640.46	627.99	615.07
35000 kPa	717	706.33	695.3	684.06	672.7	660.84	649.09	637.26	625.15
40000 kPa	722.21	711.79	701.19	690.37	679.54	668.11	656.92	645.67	634.21
50000 kPa	731.68	721.98	711.96	701.9	691.67	681.15	670.8	660.45	649.98
60000 kPa	740.35	731.17	721.63	712.04	702.5	692.63	682.9	673.27	663.51
70000 kPa	748.4	739.59	730.55	721.44	712.29	702.89	693.76	684.63	675.48
